# The supplement of paper PMC10307832
# Experiments:
# Assay in all cases: relative viability (nuclei count vs DMSO), 5 days (fraction); higher = more cells survive
# [1] = compound: Cc1ccc2nc(NCCN)c3ncc(C)n3c2c1 + Nc1ncn([C@H]2C[C@H](O)[C@@H](CO)O2)c(=O)n1 [Decitabine] (partner 2 µM)
# Summary of the method: (§1)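 After 5 days of treatment, lung cancer cells in 1536-well plates were fixed and stained in a single step (final 0.05% Triton X-100, 1% formaldehyde, 1 ug/ml Hoechst) and their nuclei counted on 4× images. Treatment had been applied by pin tool the day after seeding as one drug alone or as a fixed anchor-drug dose with five library-drug doses (not always all listed) in √10 steps. Relative viability is the nuclei count of treated wells divided by that of vehicle wells, and values are medians of duplicate plates.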
# [2] = compound: O=C(/C=C/c1ccccc1)NC(NC(=S)Nc1cccc2cccnc12)C(Cl)(Cl)Cl [Salubrinal] + COc1cccc2cc(-c3nc([C@H]4CC[C@H](C(=O)O)CC4)n4ncnc(N)c34)[nH]c12 [OSI-027] (partner 0.5 µM)
# Summary of the method: as §1
# [3] = compound: Cc1ccc2nc(NCCN)c3ncc(C)n3c2c1 + C[C@@H](Oc1cc(-c2cnn(C3CCNCC3)c2)cnc1N)c1c(Cl)ccc(F)c1Cl [Crizotinib] (partner 1 µM)
# Summary of the method: as §1
# [4] = compound: Cc1ccc2nc(NCCN)c3ncc(C)n3c2c1 + COc1cccc2cc(-c3nc([C@H]4CC[C@H](C(=O)O)CC4)n4ncnc(N)c34)[nH]c12 [OSI-027] (partner 0.5 µM)
# Summary of the method: as §1
Cell Line,relative viability ([1]; first compound 0.04 µM),relative viability ([1]; first compound 0.1265 µM),relative viability ([1]; first compound 0.4 µM),relative viability ([1]; first compound 1.265 µM),relative viability ([1]; first compound 4 µM),relative viability ([2]; first compound 0.08 µM),relative viability ([2]; first compound 0.253 µM),relative viability ([2]; first compound 0.8 µM),relative viability ([2]; first compound 2.53 µM),relative viability ([2]; first compound 8 µM),relative viability ([3]; first compound 0.04 µM),relative viability ([3]; first compound 0.1265 µM),relative viability ([3]; first compound 0.4 µM),relative viability ([3]; first compound 1.265 µM),relative viability ([3]; first compound 4 µM),relative viability ([4]; first compound 0.04 µM),relative viability ([4]; first compound 0.1265 µM),relative viability ([4]; first compound 0.4 µM),relative viability ([4]; first compound 1.265 µM),relative viability ([4]; first compound 4 µM)
A-427,0.557,0.561,0.547,0.58,0.539,0.409,0.516,0.568,0.437,0.452,1.01,1.01,0.835,0.966,0.942,0.499,0.408,0.488,0.49,0.451
NCI-H2347,0.605,0.664,0.603,0.645,0.585,0.289,0.308,0.379,0.349,0.422,0.653,0.673,0.615,0.617,0.625,0.373,0.503,0.386,0.425,0.223
NCI-H1355,0.398,0.364,0.345,0.356,0.367,0.409,0.341,0.505,0.4,0.398,1.1,1.15,1.04,1.01,0.983,0.447,0.447,0.335,0.384,0.404
NCI-H1944,0.377,0.428,0.436,0.418,0.422,0.384,0.389,0.483,0.387,0.406,1.05,1.18,1.09,1.19,1.09,0.391,0.376,0.341,0.443,0.403
PC-3 [JPC-3],0.831,0.889,0.854,0.846,0.761,0.7,0.538,0.751,0.913,0.729,0.973,0.992,0.974,0.947,0.966,0.776,0.83,0.734,0.822,0.767
HOP-62,0.24,0.209,0.241,0.177,0.234,0.819,0.765,1.11,0.849,0.714,1.01,0.895,0.811,0.812,0.835,0.93,0.83,0.582,0.848,0.813
HARA,0.492,0.758,0.651,0.419,0.546,0.539,0.557,0.582,0.524,0.462,0.951,0.916,1.02,0.746,0.917,0.488,0.505,0.233,0.459,0.553
NCI-H838,0.494,0.461,0.428,0.44,0.427,0.327,0.402,0.372,0.4,0.407,0.844,0.777,0.795,0.789,0.762,0.462,0.397,0.445,0.385,0.398
